Values joined by “and” are separate entries in the source; they are usually repeats but may differ in a detail not shown here. Equal entries are not always repeated. Where no end group is shown, it is not given here. Side-chain parts run from the residue outwards. rhodamine‑labelled PEGylated perfluoro‑15‑crown‑5 ether nanoemulsion = not defined here; carboxyfluorescein = N-terminal fluorescence label (CF)
How the values were obtained:
[1] = test system: murine neutrophils; assay: Ex vivo mNPPFC uptake by neutrophils from mice with Matrigel-LPS plug, flow cytometry; format: cell-based, mouse; parameters: ex vivo uptake by murine neutrophils, Ctrl - mNPPFCs, raw data: unit not given here; details: for ex vivo uptake by murine neutrophils, Ctrl - mNPPFCs, raw data: Ctrl mice, single samples #1-#5
Experimental: To induce defined inflammatory foci, we adopted a recently developed model of localized subcutaneous inflammation. To this end, ice-cold Matrigel (Corning) was doped with LPS (1 µg µl^−1; Salmonella typhimurium, Sigma-Aldrich) and subcutaneously (s.c.) implanted into the neck of the mice. Twenty-four hours after implanting the plug, neutrophils were isolated from the blood and incubated ex vivo with ^mNPPFCs or ^ConPFCs. In separate experiments, 24 h after implantation, ^mNPPFCs or ^ConPFCs were injected intravenously, and immune cells were isolated from the blood. In further experiments, 1 d after plug injection, mice received 1 mmol per kg BW ^mNPPFCs, and, 24 h later, the bone marrow was analyzed by ^1H/^19F MRI. Thereafter, mice were killed, and neutrophils were isolated from the bone marrow for determination of cell numbers. In each case, immune cells were analyzed by flow cytometry.
A total of 1 × 10^6 cells were incubated with 10 µl of the emulsion over a period of 80 min at 37 °C. At distinct time points, 50 µl of the samples were transferred into 2 ml of ice-cold MACS buffer and analyzed for rhodamine fluorescence by flow cytometry.

[2] = test system: murine neutrophils; assay: Phagocytosis of FITC-labeled E. coli particles by murine neutrophils after mNPPFC injection; format: in vivo, mouse; details: in the presence of the targeting PFCs
Experimental: […] per kg BW ^mNPPFCs or saline were injected i.v., followed by 100 µl FITC-labeled Escherichia coli particles (Thermo Fisher) 2 h later. […] Thereafter, FITC labeling was determined by flow cytometry.
Extended Data Fig. 9 Impact of ^mNPPFCs on murine neutrophils. a, Differentially expressed genes (DEGs) identified by bulk RNA sequencing of murine blood neutrophils after intravenous injection of ^mNPPFCs, ^ConPFCs or NaCl (Ctrl) as control. Volcano plots of DEGs for murine neutrophils of animals treated with saline compared to ^mNPPFCs (left), or ^ConPFCs compared to ^mNPPFC (right). […] BF = Bonferroni corrected p-values of the false discovery rate. In total 25655 RNA transcripts were analyzed. b, Cell surface expression of CD11b, CD62L, CD63 on blood derived murine neutrophils after intravenous application of NaCl (Ctrl) or ^mNPPFCs. As a positive control, matrigel doped with 50 µg LPS was subcutaneously implanted into the neck of mice and after 24 h, neutrophils were isolated from the blood and analyzed by flow cytometry. c, Impact of ^mNPPFC incubation on neutrophil migration, phagocytosis and release of reactive oxygen species (ROS). […]

[3] = test system: neutrophils from explanted failing human hearts; assay: hNPPFC uptake by neutrophils from explanted human hearts, flow cytometry; format: cell-based; details: 10 µl hNPPFCs, 30 min, 37 °C
Experimental: During orthotopic heart-transplant surgery in patients suffering from terminal heart failure, a tissue specimen of about ~5 g was excised from the apex of the failing heart immediately after explantation. Tissues were immediately transferred to iced BIOPS buffer as described previously. For subsequent isolation of immune cells, heart samples were cut into small pieces and digested with the Multi Tissue Dissociation Kit 2 (Miltenyi; ‘adult rat heart’ protocol) by incubating for 40 min at 37 °C with the specified enzyme mix using the 37C_Multi_G program by gentleMACS. Afterward, 7.5 ml DMEM with 20% FCS was added to stop enzymatic digestion. The sample was applied to a 70-µm cell filter and washed with 3 ml DMEM, followed by centrifugation for 5 min at 300g. The supernatant was discarded, and cells were resuspended in 1 ml DMEM and incubated with 10 µl ^hNPPFCs for 30 min at 37 °C on a vertical shaker. Afterward, cells were washed twice with MACS buffer and stained for CD45, CD11b and CD66b. DAPI staining was performed for exclusion of dead cells. The uptake of ^hNPPFCs into neutrophils (CD45^+CD11b^+CD66b^+) was determined by flow cytometry.

[4] = test system: human neutrophils; assay: Cell surface activation markers CD11b, CD63, CD66b on human neutrophils; format: cell-based; details: 50 µl ml^−1 hNPPFCs or 1 µg ml^−1 LPS, 1 h, 37 °C
Experimental: A total of 1 × 10^6 isolated human neutrophils were incubated with 50 µl ml^−1 ^hNPPFCs, 1 µg ml^−1 LPS or only DMEM for 1 h at 37 °C followed by intense washing with MACS buffer. Afterward, 1 × 10^5 cells were transferred into 96-well plates and stained for CD11b and CD63 (eBioscience, clone HSC6) or CD66b (eBioscience, clone G10F5) for 20 min at 4 °C. After two washing steps with MACS buffer, cells were analyzed by flow cytometry. A total of 1 × 10^5 isolated murine neutrophils were transferred into a 96-well plate and stained for CD11b, CD62L and CD63 for 20 min at 4 °C. After two washing steps with MACS buffer, cells were analyzed by flow cytometry.

Substance | ex vivo uptake by murine neutrophils under LPS-stimulated versus unstimulated conditions ([1]; 24 h after Matrigel-LPS implantation) | ex vivo uptake by murine neutrophils, Ctrl - mNPPFCs, raw data ([1]; time 0) | ex vivo uptake by murine neutrophils, Ctrl - mNPPFCs, raw data ([1]; time 40) | phagocytosis by murine neutrophils [2] | labeling of neutrophils freshly isolated from explanted failing human hearts [3] | expression of CD11b, CD63 and CD66b on human neutrophils [4]
mNPPFCs: PEGylated rhodamine-labeled perfluoro-15-crown-5 ether nanoemulsion (maleimide PFCs) coupled with murine neutrophil-specific peptide mNP (carboxyfluorescein-DFYKPMPNLRITGGGC([maleimide‑PEG2000‑DSPE-rhodamine‑labelled PEGylated perfluoro‑15‑crown‑5 ether nanoemulsion]); reading uncertain; also: printed as DFYKPMPNLRIT-GGG-C) | more rapid and potent uptake | 101 and 127 and 111 and 105 | 4266 and 3190 and 3194 and 3820 and 4700 | unaltered |  | 
hNPPFCs: PEGylated rhodamine-labeled perfluorocarbon nanoemulsion coupled with human neutrophil-specific peptide hNP (carboxyfluorescein-DLVTSKLQVGGGC; also: C-terminal Cys coupled via maleimide-PEG2000-DSPE to rhodamine-labelled perfluorocarbon nanoemulsion) |  |  |  |  | could be labeled | did not affect expression of these proteins

Reference: paper PMC11357992, “Non-invasive mapping of systemic neutrophil dynamics upon cardiovascular injury” (Nature Cardiovascular Research, 2023)
